From patent US6610744B2, “Methods of treatment with compounds having RARα receptor specific or selective activity” (Allergan, Inc., priority 1995, dated 2003)
Values after ≈ are worked out from the molar mass of the structure shown. Values belong to the compound of their own block, whether it stands above or below them.

Assays:
[1] = tested on: limb bud mesenchymal cells; assay: Chondrogenesis suppression bioassay (teratogenic potency); assay type: cell-based; details: read-out: IC50 (50% inhibition of chondrogenesis); mouse limb bud spot cultures, 96 hours after plating; greater IC50 signifies lesser teratogenecity
Method: High-density “spot” cultures of limb bud mesenchymal cells are used to compare the ability of various concentrations of test drugs to suppress chondrogenic differentiation as a bioassay. Forelimb buds of mouse embryos on day 12 of gestation (54±2 somites) are dissociated in a trypsin-EDTA solution, and the resultant single-cell suspension is plated as 20-μl spots (200,000 cells/spot) on plastic culture dishes. Retinoid concentrations ranging from 0.3 ng/ml to 3 μg/ml (1 nM−10 μM) are added to the culture medium (Eagle's MEM±10% fetal bovine serum, GIBCO) 24 hours after initial plating. Control cultures receive only the vehicle (ethanol, concentration≦1% by vol); Retinoic acid is used as a positive control in another set of cultures.
The cultures are terminated 96 hours after plating, at which time the medium is removed and the cells are fixed for 1 hour in 10% formalin containing 0.5% cetylpyridinium chloride. The cultures are rinsed in acetic acid and stained for 1 hour in 0.5% Alcian blue solution at pH 1.0, differentiated in 3% acetic acid, and then dehydrated in ethanol and scored for chondrogenesis under the microscope. An absence or reduction in the number of cartilage nodules in stained cultures as compared with control cultures is taken as a measure of suppression of chondrogenesis. The number of cartilage nodules stained in the whole spot, mean number of nodules, and standard deviations are calculated for four replicate cultures per treatment. […] The IC50 values are expressed in nanogram per mililiter (ng/ml) units. An IC50 value of greater concentration in this assay signifies lesser teratogenecity.

[2] = tested on: AML-193 cells (acute monocytic leukemia); assay: AML 193 cell culture assay (3H-thymidine incorporation); assay type: cell-based, human; details: FIG. 3; low concentrations
Method: (§1) All trans-retinoic acid (t-RA) (Sigma Chemicals Co., St. Louis, Mo.) was stored at −70° C. Prior to each experiment the compound was dissolved in 100% ethanol at 1 mM and diluted in culture medium immediately before use. All experiments were performed in subdued light. Controls were assayed using the same concentration of ethanol as present in the experimental plates and this concentration of diluent had no effect in either assay.
AML-193 was established from the blast cells classified as M5 Acute Monocyte Leukemia. The growth factor, […] (GM-CSF) was required to establish this cell line and growth factors are necessary for its continuous proliferation in chemically defined medium. AML-193 cells were grown and maintained in Iscove's modified Dulbecco's medium supplemented with 10% fetal bovine serum, glutamine and antibiotics with 5 μg/ml insulin (Sigma Chemical Co.) and 2 ng/ml rh GM-CSF (R and D Systems). The cells were diluted to a concentration of 3×10^5/ml twice a week.
(§2) AML-193 cells were plated in a 96 well round bottom microtiter plate (Costar) at a density of 1,000 cells/well. To appropriate wells, retinoid test compounds were added at the final concentrations indicated for a final volume of 150 μl/well. The plates were incubated for 96 hours at 37° C. in a humidified atmosphere of 5% CO2 in air. Subsequently, 1 μCi of [5′-^3H]-thymidine (Amersham, U.K., 43 Ci/mmol specific activity) in 25 μl culture medium was added to each well and the cells were incubated for an additional 6 hours.
(§3) The cell lines were then processed as follows: the cellular DNA was precipitated with 10% trichloroacetic acid onto glass fiber filter mats using a SKATRON multi-well cell harvester (Skatron Instruments, Sterling Va.). Radioactivity incorporated into DNA, as a direct measurement of cell growth, was measured by liquid scintillation counting. The numbers represent the mean disintegrations per minute of incorporated thymidine from triplicate wells±SEM.

[3] = Weight loss in rats treated for 3 days; assay type: in vivo, rat; details: rats
Method: Weight loss or gain that experimental animals experience upon administration of retinoid compounds is another test of the drug's toxicity, with significant weight loss at relatively low doses indicating a significant toxic side effect of the retinoid. In one experiment, groups of 5 rats were treated with varying doses (administered in corn oil) of a test retinoid for 3 days. The rats were euthanized 24 hours after the last dose.

[4] = tested on: hairless mice [Crl:SKH1-hrBR]; assay: Eight day topical skin irritation assay in hairless mice; details: for Abrasion Score / Body Weight % gain or (loss) / Composite Score / Flaking Score / Mortality (out of 4): 5 days
Method: More particularly, skin irritation was measured on a semi-quantitative scale by the daily subjective evaluation of skin flaking and abrasions. A single number, the topical irritation score, summarizes the skin irritation induced in an animal during the course of an experiment. The topical irritation score is calculated as follows. The topical irritation score is the algebraic sum of a composite flaking score and a composite abrasion score. The composite scores range from 0-9 and 0-8 for flaking and abrasions, respectively, and take into account the maximum severity, the time of onset, and the average severity of the flaking and abrasions observed.
The severity of flaking is scored on a 5-point scale and the severity of abrasions is scored on a 4-point scale, with higher scores reflecting greater severity. The maximum severity component of the composite scores would be the highest daily severity score assigned to a given animal during the course of observation.
For the time of onset component of the composite score, a score ranging from 0 to 4 is assigned as follows:
The average severity component of the composite score is the sum of the daily flaking or abrasion scores divided by the number of observation days.
To calculate the composite flaking and abrasion scores, the average severity and time of onset scores are summed and divided by 2. The result is added to the maximal severity score. The composite flaking and abrasion scores are then summed to give the overall topical irritation score. Each animal receives a topical irritation score, and the values are expressed as the mean±SD of the individual scores of a group of animals. Values are rounded to the nearest integer.
Thus, female hairless mice [Crl:SKH1-hrBR] […] Treatments are applied to the dorsal skin in a total volume of 4 ml/kg (−0.1 ml).

RXRΓ = target: T1, RXRΓ (Homo sapiens, UniProt P48443); assay: Ligand binding assay, RXRΓ
T1 construct: made in house; host or cells: Baculovirus expression (insect cell extract)
T1 sequence (P48443 1-463): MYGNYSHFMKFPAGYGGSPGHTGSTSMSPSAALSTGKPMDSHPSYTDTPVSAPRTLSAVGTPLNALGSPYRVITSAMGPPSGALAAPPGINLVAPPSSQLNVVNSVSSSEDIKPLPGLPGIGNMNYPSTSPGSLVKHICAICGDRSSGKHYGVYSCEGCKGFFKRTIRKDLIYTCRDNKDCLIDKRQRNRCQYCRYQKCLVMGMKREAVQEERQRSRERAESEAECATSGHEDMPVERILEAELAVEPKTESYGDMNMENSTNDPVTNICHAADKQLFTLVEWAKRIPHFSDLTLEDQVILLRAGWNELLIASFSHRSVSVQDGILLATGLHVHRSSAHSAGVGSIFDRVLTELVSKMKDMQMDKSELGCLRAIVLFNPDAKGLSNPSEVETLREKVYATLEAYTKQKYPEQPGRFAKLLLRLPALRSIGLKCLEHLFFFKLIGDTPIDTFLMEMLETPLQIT
Method: (§4) All binding assays were performed in a similar fashion. All six receptor types were derived from the expressed receptor type (RARα, β, Γ and RXRα, β, Γ) expressed in Baculovirus. Stock solutions of all compounds were prepared as 10 mM ethanol solutions and serial dilutions carried out into 1:1 DMSO; ethanol. Assay buffers consisted of the following for all six receptor assays: 8% glycerol, 120 mM KCl 8 mM Tris, 5 mM CHAPS 4 mM DTT and 0.24 mM PMSF, pH-7.4@ room temperature.
(§5) All receptor binding assays were performed in the same manner. The final assay volume was 250 μl and contained from 10-40 μg of extract protein depending on receptor being assayed along with 5 nM of [^3H] all-trans retinoic acid or 10 nM [^3H] 9-cis retinoic acid and varying concentrations of competing ligand at concentrations that ranged from 0-10^−5 M. The assays were formatted for a 96 well minitube system. Incubations were carried out at 4° C. until equilibrium was achieved. Non-specific binding was defined as that binding remaining in the presence of 1000 nM of the appropriate unlabeled retinoic acid isomer. At the end of the incubation period, 50 μl of 6.25% hydroxyapitite was added in the appropriate wash buffer. The wash buffer consisted of 100 mM KCl, 10 mM Tris and either 5 mM CHAPS (RXRα, β, Γ) or 0.5% Triton X-100 (RARα, β, Γ). The mixture was vortexed and incubated for 10 minutes at 4° C., centrifuged and the supernatant removed. The hydroxyapitite was washed three more times with the appropriate wash buffer. The receptor-ligand complex was adsorbed by the hydroxyapitite. The amount of receptor-ligand complex was determined by liquid scintillation counting of hydroxyapitite pellet.
(§6) After correcting for non-specific binding, IC50 values were determined. […] The IC50 value was determined graphically from a loglogit plot of the data. The […] were determined by application of the Cheng-Prussof equation to the IC50 values, the labeled ligand concentration and the Kd of the labeled ligand.
(§7) The results of ligand binding assay are expressed in Kd numbers. (See Cheng et al. Biochemical Pharmacology Vol. 22 pp 3099-3108, expressly incorporated herein by reference.)

RXRβ = target: T2, RXRβ (Homo sapiens, UniProt P28702); assay: Ligand binding assay, RXRβ
T2 construct: made in house; host or cells: Baculovirus expression (insect cell extract)
T2 sequence (P28702 1-533): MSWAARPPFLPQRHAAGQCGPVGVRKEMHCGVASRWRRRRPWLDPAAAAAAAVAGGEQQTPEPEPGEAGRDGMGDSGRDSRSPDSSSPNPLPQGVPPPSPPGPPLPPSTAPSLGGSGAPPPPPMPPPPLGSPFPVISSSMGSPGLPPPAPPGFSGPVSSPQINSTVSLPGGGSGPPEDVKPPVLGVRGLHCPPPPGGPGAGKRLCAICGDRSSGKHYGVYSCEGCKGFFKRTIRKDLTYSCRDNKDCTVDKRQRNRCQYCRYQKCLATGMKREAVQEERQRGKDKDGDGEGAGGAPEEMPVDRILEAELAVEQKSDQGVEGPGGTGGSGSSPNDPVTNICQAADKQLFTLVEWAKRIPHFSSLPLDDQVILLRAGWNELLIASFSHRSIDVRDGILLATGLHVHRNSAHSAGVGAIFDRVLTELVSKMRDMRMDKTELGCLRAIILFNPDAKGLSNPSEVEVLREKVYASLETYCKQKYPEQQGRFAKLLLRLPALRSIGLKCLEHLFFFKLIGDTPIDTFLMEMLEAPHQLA
Method: as §4, §5, §6, §7

[5] = tested on: RPMI 8226 cells (malignant myeloma); assay: RPMI 8226 cell culture assay (3H-thymidine incorporation); assay type: cell-based, human; details: FIG. 1; for growth of RPMI 8226 malignant cells: 96 hours; for growth of RPMI 8226 cells at low concentration: low concentration range 10^−12 to approximately 10^−9
Method: as §1
The cell lines, RPMI 8226, ME-180 and AML-193 were obtained from the American Type Culture Collection (ATCC, Rockville, Md.). RPMI 8226 is a human hematopoietic cell line obtained from the peripheral blood of a patient with multiple myeloma. The cells resemble the lymphoblastoid cells of other human lymphocyte cell lines and secrete […] light chains of immunoglobulin. RPMI-8226 cells are grown in RPMI medium (Gibco) supplemented with 10% fetal bovine serum, glutamine and antibiotics. The cells were maintained as suspension cultures grown at 37° C. in a humidified atmosphere of 5% CO2 in air. The cells were diluted to a concentration of 1×10^5/ml twice a week.
as §2, with “The method used for determination of the incorporation of radiolabeled thymidine was adapted from the procedure described by Shrivastav et al. RPMI-8226” for “AML-193”, “U.K.” for “U.K.,”, “hours. The cultures were further processed as described below.” for “hours.”
as §3

SMILES: CC1(C)CC(C)(C)c2cc(C(=O)Nc3ccc(C(=O)O)c(F)c3)cc(I)c2O1 [Compound 18]
IC50 [1]: 220 ng/mL (≈ 442 nM)
AML-193 cell proliferation at low concentrations [2]: reduce cell proliferation at low concentrations
weight loss compared to control ([3]; daily doses up to 90 μmol/kg/day in corn oil for 3 days, FIG. 6, FIG. 7): virtually no weight loss even in the high dose of 90 μmol/kg/day
Abrasion Score ([4]; dose 100 nanomol/25 g topical): 1
Body Weight % gain or (loss) ([4]; dose 100 nanomol/25 g topical): 8 ± 7%
Composite Score ([4]; dose 100 nanomol/25 g topical): 1 ± 1
Flaking Score ([4]; dose 100 nanomol/25 g topical): 0
Mortality (out of 4) ([4]; dose 100 nanomol/25 g topical): 0 out of 4
Abrasion Score ([4]; dose 1000 nanomol/25 g topical): 1
Body Weight % gain or (loss) ([4]; dose 1000 nanomol/25 g topical): 4 ± 1%
Composite Score ([4]; dose 1000 nanomol/25 g topical): 2 ± 0
Flaking Score ([4]; dose 1000 nanomol/25 g topical): 1
Mortality (out of 4) ([4]; dose 1000 nanomol/25 g topical): 0 out of 4

Kd (RXRΓ): > 1000 nM
Kd (RXRβ): > 1000 nM
SMILES: CC(C)(C)c1cc(C(=O)Nc2ccc(C(=O)O)cc2)cc(C(C)(C)C)n1 [Compound 44]

SMILES: CC1(C)CC(C)(C)c2cc(C(=O)Nc3ccc(C(=O)O)c(F)c3)cc(Br)c2O1 [Compound 10, 2-Fluoro-4-[(2′,2′,4′,4′-tetramethyl-8′-bromochroman-6′-yl)carbamoyl]benzoic Acid]
IC50 [1]: 250 ng/mL (≈ 555 nM)

SMILES: C/C(=C\c1ccc(C(=O)O)cc1)c1ccc2c(c1)C(C)(C)CCC2(C)C [TTNPB]
IC50 [1]: 0.01 ng/mL (≈ 0.0287 nM)
weight loss in similar tests ([3]; similar tests): very significant weight loss
Abrasion Score ([4]; dose 0.9 nanomol/25 g topical): 3
Body Weight % gain or (loss) ([4]; dose 0.9 nanomol/25 g topical): 5 ± 2%
Composite Score ([4]; dose 0.9 nanomol/25 g topical): 8 ± 2
Flaking Score ([4]; dose 0.9 nanomol/25 g topical): 5
Mortality (out of 4) ([4]; dose 0.9 nanomol/25 g topical): 0 out of 4
Abrasion Score ([4]; dose 2.7 nanomol/25 g topical): 3
Body Weight % gain or (loss) ([4]; dose 2.7 nanomol/25 g topical): (4 ± 3) %
Composite Score ([4]; dose 2.7 nanomol/25 g topical): 9 ± 2
Flaking Score ([4]; dose 2.7 nanomol/25 g topical): 6
Mortality (out of 4) ([4]; dose 2.7 nanomol/25 g topical): 0 out of 4
Abrasion Score ([4]; dose 9 nanomol/25 g topical): 5
Body Weight % gain or (loss) ([4]; dose 9 nanomol/25 g topical): (11 ± 3) %
Composite Score ([4]; dose 9 nanomol/25 g topical): 11 ± 2
Flaking Score ([4]; dose 9 nanomol/25 g topical): 7
Mortality (out of 4) ([4]; dose 9 nanomol/25 g topical): 0 out of 4
skin irritation (summary in words) ([4]; topical, hairless mice, RARα selective compound up to 1000 nmol/25 g): much more serious skin irritation

Kd (RXRΓ): > 1000 nM
Kd (RXRβ): > 1000 nM
SMILES: CC(C)(C)c1cc(C(=O)Nc2ccc(C(=O)O)c(F)c2)c(O)c(C(C)(C)C)c1 [Compound 48]

SMILES: CC1(C)CC(C)(C)c2cc(C(=O)Nc3ccc(C(=O)O)c(F)c3)cc(C(F)(F)F)c2O1 [Compound 12]
growth of RPMI 8226 malignant cells [5]: inhibited the growth
growth of RPMI 8226 cells at low concentration [5]: do not stimulate but rather already in this low concentrations inhibit the growth
AML-193 cell proliferation at low concentrations [2]: reduce cell proliferation at low concentrations

SMILES: CC1(C)CCC(C)(C)c2c(Br)cc(C(=O)Nc3ccc(C(=O)O)c(F)c3)cc21 [Compound 4, 2-Fluoro-4-[(4′-bromo-5′,6′,7′,8′-tetrahydro-5′,5′,8′,8′-tetramethylnaphthalen-2′-yl)carbamoyl]benzoic Acid]
growth of RPMI 8226 malignant cells [5]: inhibited the growth
growth of RPMI 8226 cells at low concentration [5]: do not stimulate but rather already in this low concentrations inhibit the growth
AML-193 cell proliferation at low concentrations [2]: reduce cell proliferation at low concentrations
